The values that follow come from patent US7858765B2, “OX40R binding agents” (Merck Serono SA, priority 2002, dated 2010).

Peptide text beside a SMILES is read from it.

One assay concerns the target T1, OX40R-IgG1 (Homo sapiens, UniProt P43489).
T1 construct: extracellular portion of human OX40R (amino acids 1-208 of SWISSPROT Acc. No P43489); human IgG1 constant region (hinge, CH2 and CH3); made in house; purified from the supernatant on protein G
T1 sequence (P43489 29-208): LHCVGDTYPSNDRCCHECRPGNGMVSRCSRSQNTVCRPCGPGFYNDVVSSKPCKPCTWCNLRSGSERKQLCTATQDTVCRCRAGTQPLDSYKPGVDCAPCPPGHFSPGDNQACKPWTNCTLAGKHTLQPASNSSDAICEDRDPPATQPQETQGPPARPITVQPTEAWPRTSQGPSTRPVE
Nature of the assay: Fluorescence quenching assay of OX40R-IgG1. It counts as binding. As to the method:
The fluorescence quenching assay was performed as previously described (Golabek A et al., 2000). OX40R-IgG1 (35 micrograms) was dissolved in 500 microliters of PBS and the fluorescence spectum was recorded at 295-420 nanometers with an excitation wavelength of 290 nanometers using a spectrofluorimeter (Perkin Elmer LS50B) with the slits set at 5 nanometers. Fluorescence spectra of human OX40R-IgG1 were then recorded in the presence of increasing concentrations (5-1000 nM) of P5 and P5-1 peptides after 15 minutes of equilibration. The fluorescence change at 336 nanometers was plotted versus peptide concentration and the resulting curves were analyzed by nonlinear regression fit with Prism® software (GraphPad).
The affinity of the peptides identified in Example 1 as inhibitor of OX40L-OX40R interaction was evaluated by fluorescence quenching spectroscopy, a technology allowing such measurements in solution, under native conditions and without beads or other supports. This method is based on monitoring the changes in the intrinsic fluorescence of a protein (OX40R-IgG1) upon its binding with another protein (P5 or P5-1). […]

The target in assay [1] is T2, OX40L-OX40R interaction (OX40R-IgG1 / OX40L-CD8) (Homo sapiens, UniProt P43489).
T2 sequence (P43489 29-208): T1 sequence (P43489 29-208)
Nature of the assay: Alphascreen-based competition assay (displacement of OX40L-CD8 from OX40R-IgG1). It counts as binding. As to conditions: for inhibition of binding of OX40R to OX40L (in words): Alphascreen-based competition assay. As to the method: Alphascreen™ modified acceptor and donor beads were purchased (Biosignal Packard). OX40R-IgG1 and OX40L-CD8 fusion proteins were immobilized, respectively, onto protein A-conjugated acceptor beads and, by the means of a biotinylated anti-CD8 antibody, onto streptavidin-conjugated donor beads.
The binding assay was performed using Costar® 384-well white polystyrene plates (Corning). Each well of a 384-well plate contained a reaction mix having a volume of 25 microliters. Each of the five components of the reaction mix (OX40R-IgG1, OX40L-CD8, biotinylated anti-CD8, streptavidin-conjugated donor beads, and Protein A-conjugated acceptor beads) was added in a volume of 5 microliters. All dilutions were made in assay buffer (Phosphate Buffer Saline and 0.1% BSA), with or without dimethyl sulfoxide (DMSO).
In the standard assay, OX40-IgG1 and OX40L-CD8 were incubated together for 30 minutes, and then biotinylated anti-CD8 antibody (10 nM) was added. Following another incubation period of 30 minutes, streptavidin donor beads (20 μg/ml) and Protein A acceptor beads (20 μg/ml) were added to each individual well. The plate was counted 1 hour later using a Packard Fusion™ reader (Biosignal Packard) set at a read time of 1 second/well. Owing to the light sensitivity of the donor and acceptor beads, the experiments were carried out under blue light and all incubation periods were performed at room temperature. The plate was read at an excitation wavelength of 680 nanometers combined with a shorter emission wavelength of 520-620 nanometers.
All KD, IC50 and EC50 values were calculated using Prism® software (Graphpad Software). The transformation of IC50 values into Ki values was performed using the Cheng-Prusoff equation (Cheng Y C and Prusoff W H, 1973).
The ability of two known competitors of OX40L-OX40R interactions (untagged recombinant human soluble OX40L and suramin), which are themselves unable to generate an Alphascreen™ signal in this assay in absence of OX40L-CD8, to displace OX40L-CD8 from OX40R-IgG1 was investigated. The displacement experiments were performed, taking into consideration the approximate KD value, with a concentration of OX40L-CD8 (40 nM) that was 4 times greater than that of the OX40R-IgG1 (10 nM). Increasing concentrations of OX40L (3 μM-0.1 pM) or suramin (1 mM[…]1 nM) were added to a reaction mixture also containing OX40-IgG1 (10 nM) and OX40L-CD8 (40 nM). […] This latter value for suramin is similar to reported values for inhibition of TNF-α binding to the TNF receptor (Gray P W et al., 1990).
The soluble components (OX40-IgG1, OX40L-CD8 and biotinylated anti-CD8 antibody) were mixed at the concentration described before for the competition assays with OX40L and suramin (FIG. 4), together with various concentrations of each peptide in a 5 microliter volume into a first addition step. The streptavidin donor and Protein A acceptor beads were added 30 minutes later. The plates were incubated for 2 hours in the dark, at room temperature and with shaking, before reading at a long excitation wavelength of 680 nm combined with a shorter emission wavelength of 520-620 nanometers, as described in Example 1.

For a further assay, the target named is T3, OX40R (Homo sapiens, UniProt P43489).
T3 sequence (P43489 29-277): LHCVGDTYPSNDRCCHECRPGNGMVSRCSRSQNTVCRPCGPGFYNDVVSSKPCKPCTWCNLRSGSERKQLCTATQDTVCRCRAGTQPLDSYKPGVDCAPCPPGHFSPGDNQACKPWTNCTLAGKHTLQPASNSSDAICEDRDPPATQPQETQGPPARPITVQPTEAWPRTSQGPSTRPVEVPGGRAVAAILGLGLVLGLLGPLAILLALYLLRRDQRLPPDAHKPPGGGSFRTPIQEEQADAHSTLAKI
As to conditions: literature value; read-out: Kd of OX40L (homotrimer) for OX40R; cited from earlier work.

As a reminder, the Kd is the constant that tells how readily two partners part at equilibrium. By IC50 is commonly meant the concentration at which inhibition is half-maximal. What is called Ki is the equilibrium dissociation constant of an inhibitor or competing ligand from its target.

Compound `CC[C@H](C)[C@H](NC(=O)[C@H](CC(N)=O)NC(=O)[C@@H](NC(=O)[C@H](CCC(=O)O)NC(=O)[C@H](CCC(N)=O)NC(=O)[C@H](CO)NC(=O)[C@H](Cc1ccccc1)NC(=O)[C@H](Cc1ccc(O)cc1)NC(=O)CN)C(C)C)C(=O)N[C@@H](CO)C(=O)O` [P5-1, GYFSQEVNIS] (H-GYFSQEVNIS-OH; N-terminus and C-terminus assumed) returned a Kd at OX40R-IgG1 of about 0.0246 µM.
Consider `CC[C@H](C)[C@H](N)C(=O)N[C@H](C(=O)N[C@@H](CC(N)=O)C(=O)N[C@@H](CS)C(=O)N[C@@H](CC(=O)O)C(=O)NCC(=O)N[C@@H](Cc1ccccc1)C(=O)N[C@@H](Cc1ccc(O)cc1)C(=O)N[C@@H](CC(C)C)C(=O)N[C@H](C(=O)N[C@@H](CO)C(=O)N[C@@H](CC(C)C)C(=O)N[C@@H](CCCCN)C(=O)NCC(=O)N[C@@H](Cc1ccc(O)cc1)C(=O)N[C@@H](Cc1ccccc1)C(=O)N[C@@H](CO)C(=O)N[C@@H](CCC(N)=O)C(=O)N[C@@H](CCC(=O)O)C(=O)N[C@H](C(=O)N[C@@H](CC(N)=O)C(=O)N[C@H](C(=O)N[C@@H](CO)C(=O)N[C@@H](CC(C)C)C(=O)N[C@@H](Cc1c[nH]cn1)C(=O)N[C@@H](Cc1ccc(O)cc1)C(=O)N[C@@H](CCC(N)=O)C(=O)N[C@@H](CCCCN)C(=O)N[C@@H](CC(=O)O)C(=O)N[C@@H](CCC(=O)O)C(=O)N[C@@H](CCC(=O)O)C(=O)O)[C@@H](C)CC)C(C)C)[C@@H](C)CC)[C@@H](C)CC` [P5] (H-IINCDGFYLISLKGYFSQEVNISLHYQKDEE-OH; N-terminus and C-terminus assumed), for which the “inhibition of binding of OX40R to OX40L (in words)” value in assay [1] was “micromolar range”.
As to `Cc1ccc(C(=O)Nc2ccc(S(=O)(=O)O)c3cc(S(=O)(=O)O)cc(S(=O)(=O)O)c23)cc1NC(=O)c1cccc(NC(=O)Nc2cccc(C(=O)Nc3cc(C(=O)Nc4ccc(S(=O)(=O)O)c5cc(S(=O)(=O)O)cc(S(=O)(=O)O)c45)ccc3C)c2)c1` [suramin, Suramin, reference compound], in assay [1] (OX40-IgG1 10 nM, OX40L-CD8 40 nM, read-out: IC50 for competition of OX40L-CD8 binding), the 50% inhibitory concentration (IC50) was determined as 79 µM. Moreover, in assay [1] (OX40-IgG1 10 nM, OX40L-CD8 40 nM, read-out: Ki (Cheng-Prusoff from IC50)), the Ki stood at 26.3 µM.
Regarding “EKGFILTSQKEDEIMKVQNNSVIINCDGFYL (human OX40R binding peptides) [P4, peptide corresponding to amino acids 72-102 of human OX40L]”, the “inhibition of binding of OX40R to OX40L (in words)” value in assay [1] is “bind OX40R very poorly”.
In the case of “OX40L: recombinant human soluble OX40L, extracellular portion, prepared as GST fusion in baculovirus system; b9 value is for natural homotrimer”, the “-log IC50±SEM” value in assay [1] (OX40-IgG1 10 nM, OX40L-CD8 40 nM) was determined as 8.23±0.35. For the same compound, the Kd with OX40R was 0.0002 to 0.0004 µM.
